Data taken from patent US20200261534A1, “NEW TREATMENTS OF MULTIPLE MYELOMA” (priority 2017, published 2020).

Key:
MM1S cells = assay: Subcutaneous xenograft model, in vivo synergy of S09 drug combinations; design: species or system CB17-SCID immunosuppressed mice; settings: MM1S s.c. xenograft, CB17-SCID mice; for Tumor volume: i.p.: B 0.5, C 50, D 0.5 mg/kg days 1 and 4, S09 4 mg/kg each 12 hours
Procedure: CB17-SCID immunosuppressed mice (female) of 6-7 weeks old housed and handled in a pathogen-free zone. They were purchased from Janvier Labs (France). All experiments were carried out within the facilities of the University of Salamanca (Spain).
Control: Medium (PBS), intraperitoneally (i.p.), each 12 hours on days 1 to 5.
Treatment Groups: • Monotherapy: • Bortezomib 0.5 mg/kg i.p. on days 1 and 4. • Cyclophosphamide 50 mg/kg i.p. on days 1 and 4 • Dexamethasone 0.5 mg/kg i.p. on days 1 and 4 • S09 4 mg/kg i.p. each 12 hours on days 1 to 7 • Double combinations: • Bortezomib 0.5 mg/kg i.p. on days 1 and 4+S09 4 mg/kg i.p. each 12 hours on days 1 to 7 • Cyclophosphamide 50 mg/kg i.p. on days 1 and 4+S09 4 mg/kg i.p. each 12 hours on days 1 to 7 • Dexamethasone 0.5 mg/kg i.p. on days 1 and 4+S09 4 mg/kg i.p. each 12 hours on days 1 to 7 • Bortezomib 0.5 mg/kg i.p. on days 1 and 4+Cyclophosphamide 50 mg/kg i.p. on days 1 and 4 • Cyclophosphamide 50 mg/kg i.p. on days 1 and 4+Dexamethasone 0.5 mg/kg i.p. on days 1 and 4 • Dexamethasone 0.5 mg/kg i.p. on days 1 and 4+Bortezomib 0.5 mg/kg i.p. on days 1 and 4 • Triple combinations: • Bortezomib 0.5 mg/kg i.p. on days 1 and 4+Dexamethasone 0.5 mg/kg i.p. on days 1 and 4+S09 4 mg/kg i.p. each 12 hours on days 1 to 7 • Cyclophosphamide 50 mg/kg i.p. on days 1 and 4+Dexamethasone 0.5 mg/kg i.p. on days 1 and 4+S09 4 mg/kg i.p. each 12 hours on days 1 to 7
Mice were shaved on the right flank and anesthetized by inhalation to decrease their mobility, were inoculated subcutaneously with 3×10^6 MM1S cells in 50 μl of RPMI-1640 medium and 50 μl of Corning @ Matrigel® Basement Membrane Matrix. […] This was estimated by measurements with a caliper of the two tumor diameters and using the following formula of a spheroid: […]
Where a and b correspond to the longest and shortest diameter, respectively. Tumor volume was monitored three times per week.
The treatment endpoint was determined by the value of tumor volume in the mouse (a range of 2000-2200 mm3).

[1] = Growth inhibition activity, comparative test of Example 3 (cell lines not given); assay type: cell-based; settings: Example 3, comparison with stapled versions
Description: Following the same protocol as the one disclosed in previous sections, the following activity data were obtained: […]

[2] = day of treatment 5, relative to day 1
[3] = day of treatment 10, relative to day 1
[4] = day of treatment 15, relative to day 1
[5] = day of treatment 24, relative to day 1

Compound: CC(C)C[C@H](NC(=O)[C@H](Cc1ccccc1)NC(=O)c1cnccn1)B(O)O [B, bortezomib]
- normalized tumor volume percentage (%) (MM1S cells; day of treatment 1 (= 100)): 100.00%
- Tumor volume (MM1S cells; day of treatment 1): 119.96 mm^3
- normalized tumor volume percentage (%) (MM1S cells; [2]): 138.36%
- Tumor volume (MM1S cells; day of treatment 5): 165.98 mm^3
- normalized tumor volume percentage (%) (MM1S cells; [3]): 230.48%
- Tumor volume (MM1S cells; day of treatment 10): 276.48 mm^3
- normalized tumor volume percentage (%) (MM1S cells; [4]): 470.62%
- Tumor volume (MM1S cells; day of treatment 15): 564.56 mm^3
- normalized tumor volume percentage (%) (MM1S cells; [5]): 1410.31%
- Tumor volume (MM1S cells; day of treatment 24): 1691.81 mm^3

Compound: O=P1(N(CCCl)CCCl)NCCCO1 (stereo not shown) [C, cyclophosphamide]
- normalized tumor volume percentage (%) (MM1S cells; day of treatment 1 (= 100)): 100.00%
- Tumor volume (MM1S cells; day of treatment 1): 120.75 mm^3
- normalized tumor volume percentage (%) (MM1S cells; [2]): 156.92%
- Tumor volume (MM1S cells; day of treatment 5): 189.48 mm^3
- normalized tumor volume percentage (%) (MM1S cells; [3]): 247.48%
- Tumor volume (MM1S cells; day of treatment 10): 298.83 mm^3
- normalized tumor volume percentage (%) (MM1S cells; [4]): 552.57%
- Tumor volume (MM1S cells; day of treatment 15): 667.23 mm^3
- normalized tumor volume percentage (%) (MM1S cells; [5]): 1252.21%
- Tumor volume (MM1S cells; day of treatment 24): 1512.04 mm^3

Compound: C[C@@H]1C[C@H]2[C@@H]3CCC4=CC(=O)C=C[C@]4(C)[C@@]3(F)[C@@H](O)C[C@]2(C)[C@@]1(O)C(=O)CO [D, dexamethasone]
- normalized tumor volume percentage (%) (MM1S cells; day of treatment 1 (= 100)): 100.00%
- Tumor volume (MM1S cells; day of treatment 1): 120.35 mm^3
- normalized tumor volume percentage (%) (MM1S cells; [2]): 110.62%
- Tumor volume (MM1S cells; day of treatment 5): 133.13 mm^3
- normalized tumor volume percentage (%) (MM1S cells; [3]): 270.68%
- Tumor volume (MM1S cells; day of treatment 10): 325.76 mm^3
- normalized tumor volume percentage (%) (MM1S cells; [4]): 524.90%
- Tumor volume (MM1S cells; day of treatment 15): 631.72 mm^3
- normalized tumor volume percentage (%) (MM1S cells; [5]): 1206.21%
- Tumor volume (MM1S cells; day of treatment 24): 1451.67 mm^3

Compound: Pro-Lys-Val-Val-11e-Leu-Lys-Lys-Ala-Thr-Ala-Tyr-Ile (PKVVILKKATAYI; wild type sequence) [SEQ ID NO: 11]
- growth inhibition activity [1]: does not present growth inhibition activity
